Test results reported in patent EP4818168A1, “FUSED RING COMPOUND, PHARMACEUTICAL COMPOSITION THEREOF AND USE THEREOF” (priority 2023, dated 2025).
Read-outs that look alike come from different tables or passages of the source.

Legend:
[1] = system: HCC1806 cells; test: CTG assay of compound inhibition on cell viability (HCC1806 cells); assay type: cell-based; details: Homo sapiens, HCC1806, 144 h, read-out: IC50 in HCC1806 Cells
Description: CellTiter-Glo (CTG) is a rapid cell viability test method based on ATP detection. […] Adenosine triphosphate (ATP) participates in various enzymatic reactions in organisms and is an indicator of living cell metabolism. Its content directly reflects the number of living cells and cell status. During the experiment, equal volume of CTG reagent is added to the cultured cells to measure the luminescence value. The chemiluminescent signal value is proportional to the amount of ATP, thus reflecting the number of viable cells. Therefore, cell viability can be obtained by detecting the ATP content. Compounds that affect cell viability will inhibit cell viability in a concentration-dependent manner, allowing a curve to be fitted to obtain the IC50 value.
The experimental procedure is as follows: • 11. Place the cell suspension in a 15 mL centrifuge tube, centrifuge at 1000 rpm for 5 min at room temperature, discard the supernatant, and collect the cell pellet. • 12. Resuspend the cell pellet with preheated complete cell culture medium (RPMI1640+10%FBS+1%PS), and use a Countess® automated cell counter to detect cell viability and density. The cell viability must be above 90%. • 13. […] Transfer the compound solution to a 96-well plate seeded with cells (final concentration of DMSO 0.1%), and place in a cell incubator at 37°C, 5% CO2 for 6 days. • 15. […] Protect from light during the whole process. Perform optical signal readings using a SpectraMax i3x reader. • 16. Data analysis: Remaining activity (%) = 100% * (1 - ((LumDMSO - Lummedium) - Lumsample) / (LumDMSO - LumPBS/medium)). Use GraphPad Prism 9.0 software to draw an S-shaped dose-survival rate curve and calculate the IC50 value using a nonlinear regression model.

[2] = target: T1, AURKA (Homo sapiens, UniProt O14965); assay type: cell-based
T1 construct: endogenous in cells; host or cells: Jurkat cells
T1 sequence (O14965 1-403): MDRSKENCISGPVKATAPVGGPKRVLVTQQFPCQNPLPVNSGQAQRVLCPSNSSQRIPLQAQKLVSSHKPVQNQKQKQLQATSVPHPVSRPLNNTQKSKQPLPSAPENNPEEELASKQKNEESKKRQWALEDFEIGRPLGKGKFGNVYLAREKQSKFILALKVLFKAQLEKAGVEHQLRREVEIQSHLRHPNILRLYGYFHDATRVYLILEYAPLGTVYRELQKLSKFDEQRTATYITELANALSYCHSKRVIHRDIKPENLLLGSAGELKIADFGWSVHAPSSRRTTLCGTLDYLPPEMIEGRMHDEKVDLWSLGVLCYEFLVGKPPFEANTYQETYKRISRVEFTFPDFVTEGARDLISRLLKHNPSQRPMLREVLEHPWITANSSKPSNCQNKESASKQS
How it was run: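 Jurkat cells seeded at 1×10^6 cells/500 µL and treated with compound; lysates run on SDS-PAGE, blotted to nitrocellulose and probed overnight at 4°C for AURKA. Chemiluminescent or fluorescent band intensity fitted to a curve to give DC50 for protein degradation.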

[3] = 100 nM compound, Jurkat cells, 24 h, Table 1
[4] = 1 µM compound, Jurkat cells, 24 h, Table 1

O=C1CCN(c2ccc(N3CC4(CCN(C(=O)c5ccc(Nc6ncc7c(n6)-c6ccc(Cl)cc6C(c6c(F)cccc6F)=NC7)cc5)C4)C3)cc2)C(=O)N1 [Compound A43]
IC50 [1]: > 10 µM | Percentage of AURKA Degradation Induced by 100 nM Compound in Jurkat Cells [2, 3]: + (Degradation ≤ 30%) | Percentage of AURKA Degradation Induced by 1 µM Compound in Jurkat Cells [2, 4]: + (Degradation ≤ 30%)

COc1cc(Nc2ncc3c(n2)-c2ccc(Cl)cc2C(c2c(F)cccc2OC)=NC3)ccc1C(=O)N1CCC2(C1)CN(c1ccc(N3CCC(=O)NC3=O)cc1)C2 [Compound A44]
IC50 [1]: < 1 µM | Percentage of AURKA Degradation Induced by 100 nM Compound in Jurkat Cells [2, 3]: + (Degradation ≤ 30%) | Percentage of AURKA Degradation Induced by 1 µM Compound in Jurkat Cells [2, 4]: + (Degradation ≤ 30%)

COc1cc(Nc2ncc3c(n2)-c2ccc(Cl)cc2C(c2c(F)cccc2OC)=NC3)ccc1C(=O)NCCN1CCN(c2ncc(N3CCC(=O)NC3=O)cn2)CC1 [Compound A45]
IC50 [1]: < 1 µM | Percentage of AURKA Degradation Induced by 100 nM Compound in Jurkat Cells [2, 3]: ++ (30% < Degradation ≤ 70%) | Percentage of AURKA Degradation Induced by 1 µM Compound in Jurkat Cells [2, 4]: ++ (30% < Degradation ≤ 70%)

COc1cccc(F)c1C1=NCc2cnc(Nc3ccc(C(=O)NC4CC5(CCN(c6ccc(N7CCC(=O)NC7=O)cc6)CC5)C4)cc3)nc2-c2ccc(Cl)cc21 [Compound A46]
IC50 [1]: < 1 µM | Percentage of AURKA Degradation Induced by 100 nM Compound in Jurkat Cells [2, 3]: +++ (Degradation > 70%) | Percentage of AURKA Degradation Induced by 1 µM Compound in Jurkat Cells [2, 4]: +++ (Degradation > 70%)

COc1cc(Nc2ncc3c(n2)-c2ccc(Cl)cc2C(c2c(F)cccc2OC)=NC3)ccc1C(=O)NCCN1CCN(c2ccc(C3CCC(=O)NC3=O)cc2)CC1 (stereo not drawn) [Compound A47]
IC50 [1]: < 1 µM | Percentage of AURKA Degradation Induced by 100 nM Compound in Jurkat Cells [2]: ++ (key: +: Degradation ≤ 30%; ++: 30% < Degradation ≤ 70%; +++: Degradation > 70%) | Percentage of AURKA Degradation Induced by 1 µM Compound in Jurkat Cells [2]: + (key: +: Degradation ≤ 30%; ++: 30% < Degradation ≤ 70%; +++: Degradation > 70%)

COc1cc(Nc2ncc3c(n2)-c2ccc(Cl)cc2C(c2c(F)cccc2OC)=NC3)ccc1C(=O)NC1CN(CCc2ccc(N3CCC(=O)NC3=O)cc2)C1 [Compound A48]
IC50 [1]: < 1 µM | Percentage of AURKA Degradation Induced by 100 nM Compound in Jurkat Cells [2, 3]: + (Degradation ≤ 30%) | Percentage of AURKA Degradation Induced by 1 µM Compound in Jurkat Cells [2, 4]: + (Degradation ≤ 30%)

COc1cc(Nc2ncc3c(n2)-c2ccc(Cl)cc2C(c2c(F)cccc2OC)=NC3)ccc1C(=O)N[C@H]1C[C@H](C#Cc2ccc(N3CCC(=O)NC3=O)cc2)C1 [Compound A51]
IC50 [1]: 1 to 10 µM | Percentage of AURKA Degradation Induced by 100 nM Compound in Jurkat Cells [2, 3]: ++ (30% < Degradation ≤ 70%) | Percentage of AURKA Degradation Induced by 1 µM Compound in Jurkat Cells [2, 4]: +++ (Degradation > 70%)

O=C1CCN(c2cccc(C#C[C@H]3C[C@H](NC(=O)c4ccc(Nc5ncc6c(n5)-c5ccc(Cl)cc5C(c5c(F)cccc5F)=NC6)cc4)C3)c2)C(=O)N1 [Compound A52]
IC50 [1]: < 1 µM | Percentage of AURKA Degradation Induced by 100 nM Compound in Jurkat Cells [2, 3]: ++ (30% < Degradation ≤ 70%) | Percentage of AURKA Degradation Induced by 1 µM Compound in Jurkat Cells [2, 4]: ++ (30% < Degradation ≤ 70%)

COc1cc(Nc2ncc3c(n2)-c2ccc(Cl)cc2C(c2c(F)cccc2OC)=NC3)ccc1C(=O)NC1CC2(CCN(c3ccc(N4CCC(=O)NC4=O)cn3)CC2)C1 [Compound A54]
IC50 [1]: < 1 µM | Percentage of AURKA Degradation Induced by 100 nM Compound in Jurkat Cells [2, 3]: +++ (Degradation > 70%) | Percentage of AURKA Degradation Induced by 1 µM Compound in Jurkat Cells [2, 4]: +++ (Degradation > 70%)

O=C1CCN(c2ccc(N3CCC4(CC3)CC(NC(=O)c3ccc(Nc5ncc6c(n5)-c5ccc(Cl)cc5C(c5c(F)cccc5F)=NC6)cc3)C4)nc2)C(=O)N1 [Compound A55]
IC50 [1]: < 1 µM | Percentage of AURKA Degradation Induced by 100 nM Compound in Jurkat Cells [2, 3]: +++ (Degradation > 70%) | Percentage of AURKA Degradation Induced by 1 µM Compound in Jurkat Cells [2, 4]: +++ (Degradation > 70%)

O=C1CCN(c2ccc(N3CC4(CCC(NC(=O)c5ccc(Nc6ncc7c(n6)-c6ccc(Cl)cc6C(c6c(F)cccc6F)=NC7)cc5)CC4)C3)cc2)C(=O)N1 [Compound A56]
IC50 [1]: < 1 µM | Percentage of AURKA Degradation Induced by 100 nM Compound in Jurkat Cells [2, 3]: +++ (Degradation > 70%) | Percentage of AURKA Degradation Induced by 1 µM Compound in Jurkat Cells [2, 4]: +++ (Degradation > 70%)

COc1cc(Nc2ncc3c(n2)-c2ccc(Cl)cc2C(c2c(F)cccc2OC)=NC3)ccc1C(=O)NC1CCC2(CC1)CN(c1ccc(N3CCC(=O)NC3=O)cc1)C2 [Compound A57]
IC50 [1]: < 1 µM | Percentage of AURKA Degradation Induced by 100 nM Compound in Jurkat Cells [2, 3]: +++ (Degradation > 70%) | Percentage of AURKA Degradation Induced by 1 µM Compound in Jurkat Cells [2, 4]: +++ (Degradation > 70%)
